Earlier results in patent US20020028808A1, “Use of potassium channel agonists for the treatment of cancer” (priority 2000, published 2002).
Like-named read-outs stand apart in the source and are kept apart here.

Legend:
[1] = test system: patients suffering from insulinoma and nesidioblastosis
[2] = test system: adipose tissue of Zucker rats
[3] = target: T1, KATP-channels on pancreatic beta-cells (Homo sapiens, UniProt Q09428+Q14654); settings: by activation of KATP-channels
T1 construct: KATP-channels on pancreatic beta-cells; host or cells: pancreatic beta-cells
T1 sequence (Q09428 whole entry): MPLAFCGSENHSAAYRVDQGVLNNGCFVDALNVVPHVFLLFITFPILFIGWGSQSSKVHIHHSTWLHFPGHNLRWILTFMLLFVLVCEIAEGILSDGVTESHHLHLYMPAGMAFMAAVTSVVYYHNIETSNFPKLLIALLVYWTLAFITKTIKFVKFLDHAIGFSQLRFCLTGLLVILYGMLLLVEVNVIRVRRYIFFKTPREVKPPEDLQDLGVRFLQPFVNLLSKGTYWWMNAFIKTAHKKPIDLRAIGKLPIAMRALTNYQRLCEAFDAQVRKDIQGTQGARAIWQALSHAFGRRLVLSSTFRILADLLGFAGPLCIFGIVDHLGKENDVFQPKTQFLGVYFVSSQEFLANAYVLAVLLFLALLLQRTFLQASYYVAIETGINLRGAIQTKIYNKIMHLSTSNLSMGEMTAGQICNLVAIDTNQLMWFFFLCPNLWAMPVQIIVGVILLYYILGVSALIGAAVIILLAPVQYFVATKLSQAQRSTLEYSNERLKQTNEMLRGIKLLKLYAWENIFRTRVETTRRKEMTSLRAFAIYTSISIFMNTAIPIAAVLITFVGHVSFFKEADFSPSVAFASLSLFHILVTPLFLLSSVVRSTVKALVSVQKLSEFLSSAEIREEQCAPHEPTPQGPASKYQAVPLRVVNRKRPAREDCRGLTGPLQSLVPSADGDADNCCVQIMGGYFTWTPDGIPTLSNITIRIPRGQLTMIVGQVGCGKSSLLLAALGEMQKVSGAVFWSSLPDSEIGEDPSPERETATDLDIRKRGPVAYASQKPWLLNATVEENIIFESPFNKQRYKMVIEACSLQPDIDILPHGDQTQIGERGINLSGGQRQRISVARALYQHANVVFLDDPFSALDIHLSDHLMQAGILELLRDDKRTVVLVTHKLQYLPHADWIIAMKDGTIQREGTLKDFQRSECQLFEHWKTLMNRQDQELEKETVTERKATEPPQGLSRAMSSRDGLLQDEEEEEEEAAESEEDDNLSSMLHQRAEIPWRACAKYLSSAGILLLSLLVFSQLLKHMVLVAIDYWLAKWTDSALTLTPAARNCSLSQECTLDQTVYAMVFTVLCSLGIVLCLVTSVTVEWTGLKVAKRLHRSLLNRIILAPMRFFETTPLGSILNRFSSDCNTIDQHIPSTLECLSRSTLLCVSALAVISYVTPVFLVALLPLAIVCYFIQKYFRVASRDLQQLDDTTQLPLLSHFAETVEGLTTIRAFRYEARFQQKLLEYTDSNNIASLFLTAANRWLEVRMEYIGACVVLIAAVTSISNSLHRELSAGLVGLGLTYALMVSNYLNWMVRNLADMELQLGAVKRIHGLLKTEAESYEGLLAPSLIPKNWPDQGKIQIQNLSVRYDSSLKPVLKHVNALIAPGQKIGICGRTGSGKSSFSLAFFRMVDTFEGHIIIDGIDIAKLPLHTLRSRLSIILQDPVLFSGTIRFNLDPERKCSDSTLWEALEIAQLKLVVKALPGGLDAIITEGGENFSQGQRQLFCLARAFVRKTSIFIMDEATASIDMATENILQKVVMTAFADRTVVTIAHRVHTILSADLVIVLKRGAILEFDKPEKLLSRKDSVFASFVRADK
T1 sequence (Q14654 whole entry): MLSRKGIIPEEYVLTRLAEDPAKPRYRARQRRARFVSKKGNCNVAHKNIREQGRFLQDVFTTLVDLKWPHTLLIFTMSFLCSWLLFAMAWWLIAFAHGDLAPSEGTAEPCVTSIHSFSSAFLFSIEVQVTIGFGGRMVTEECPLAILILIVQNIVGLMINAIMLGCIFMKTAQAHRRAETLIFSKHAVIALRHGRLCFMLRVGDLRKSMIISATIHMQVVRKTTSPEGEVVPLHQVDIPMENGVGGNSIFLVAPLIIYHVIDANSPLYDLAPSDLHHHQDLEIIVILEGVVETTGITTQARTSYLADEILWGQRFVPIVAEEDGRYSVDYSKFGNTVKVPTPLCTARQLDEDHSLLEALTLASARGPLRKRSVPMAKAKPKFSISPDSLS

insulin release [3]: inhibit insulin release
SMILES: CC1=Nc2ccc(Cl)cc2S(=O)(=O)N1 [diazoxide, 7-chloro-3-methyl-2H-1,2,4-benzothiadiazine 1,1-dioxide]
abnormal hyperinsulinaemia ([1]; nesidioblastosis (PHHI, persistent hyperinsulinaemia and hypoglycemia of infancy)): ameliorates the abnormal hyperinsulinaemia
abnormal hyperinsulinaemia ([1]; patients suffering from insulinoma): ameliorates the abnormal hyperinsulinaemia
glucose stimulated insulin release (healthy individuals): reduces glucose stimulated insulin release
leptin and lipid metabolising enzymes [2]: down-regulate leptin and lipid metabolising enzymes
